Test results published in paper PMC4516563 (Biochimica et biophysica acta, 2015).

Experiments:
human colon HCT116 = conditions: disc diffusion, 30-45 ug per disc, 7-10 days; result in words
human brain U251N = conditions: disc diffusion, 30-45 ug per disc, 7-10 days; result in words
[1] = test system: human pancreatic cancer PANC1; conditions: disc diffusion, 30-45 ug per disc, 7-10 days; result in words
[2] = pharmacokinetic studies, clinical trials in patients; cited from earlier work

Kahalalide F [KF]
cytotoxicity based on the zone assay, HCT-116 (human colon HCT116): minimal
cytotoxicity based on the zone assay, U251N (human brain U251N): minimal
cytotoxicity based on the zone assay, PANC-1 [1]: minimal
half-life [2]: approximately 30 min
